# Assay results as given in patent US11591323B2, “Muscarinic agonists as non-steroidal and non-opioid analgesics and methods of use thereof” (Barry University, priority 2019, dated 2023).
# Read-outs that look alike come from different tables or passages of the source.
# Tested on: rat aorta smooth muscle cells (mainly M2, lesser M3)
# Experiment: cAMP level in primary culture of rat aorta smooth muscle cells
# Format: cell-based
# Description: Effects of compounds 6A and 7A on both cAMP and IPX levels were also measured in primary cultures of rat aorta smooth muscle cells that express mainly M2 and to a lesser extent M3 receptors (FIG. 6). […] Receptor expression levels are far lower in tested native tissues than in transfected cell lines and vary among tissues, being highest in the striatum and lowest in the submaxillary gland. Relative expression levels of G-proteins are also known to vary among tissues and cell lines. Thus, it is great to see that the pharmacological profile of the new compounds is conserved despite these variations.
# Cell culture and membrane preparation: Chinese hamster ovary (CHO) cells stably transfected with the genes of individual human variants of muscarinic receptors were purchased from Missouri S&T cDNA Resource Center (Rolla, Mo., USA). Fresh primary cell culture of smooth muscle cells (SMC) from rat aorta prepared as previously described was kindly provided by Dr. Lucie Bačáková. Primary culture of SMCs was grown to confluency in 75 cm^2 flasks in Dulbecco's modified Eagle's medium supplemented with 10% fetal bovine serum. Up to 6-times, 2 million of cells were sub-cultured. Cell cultures and crude membranes from CHO cells were prepared as described previously (Boulos et al., Chem Biol Drug Des 1-12, 2017). Cells were grown to confluency in 75 cm^2 flasks in Dulbecco's modified Eagle's medium supplemented with 10% fetal bovine serum and 2 million of cells were subcultured in 100 mm Petri dishes. Medium was supplemented with 5 mM butyrate for the last 24 hours of cultivation to increase receptor expression. When needed, cells were cultivated with pertussis toxin at a final concentration of 25 ng/ml for the 24 hours. Cells were detached by mild trypsinization on day 5 after subculture. Detached cells were washed twice in 50 ml of phosphate-buffered saline and 3 min centrifugation at 250×g. Washed cells were suspended in 20 ml of ice-cold incubation medium (100 mM NaCl, 20 mM Na-HEPES, 10 mM MgCl2, pH=7.4) supplemented with 10 mM EDTA and homogenized on ice by two 30 sec strokes using Polytron homogenizer (Ultra-Turrax; Janke & Kunkel GmbH & Co. KG, IKA-Labortechnik, Staufen, Germany) with a 30-sec pause between strokes. Cell homogenates were centrifuged for 30 min at 30,000×g. Supernatants were discarded, pellets suspended in fresh incubation medium, incubated on ice for 30 minutes and centrifuged again. Resulting membrane pellets were kept at −80° C. until assayed within 10 weeks at a maximum.
# Measurements of the production of cAMP and inositol phosphates: Levels of second messengers cAMP and inositol phosphates were determined in radiochemical chromatography assays as described previously. To determine level of cAMP, cells in suspension were pre-incubated for 1 h with 0.4 μM [^3H]adenine, washed, and incubated for 10 min in the presence of isobutylmethylxanthine and 10 μM forskolin. […] Incubation was ended by addition of 0.2 ml of 2.5 M HCl to the samples. Samples were applied to alumina columns (1.5 g of alumina per column), washed with 2 ml ammonium acetate (pH=7.0) and eluted from columns with 4 ml ammonium acetate and measured by liquid scintillation spectrometry. […] For this purpose, new CHO cell lines stably expressing promiscuous G15 G-protein and M2 or M4 receptor were generated by transfection with pCMV/hygro vector and hygromycin selection. To determine the rate of formation of inositol phosphates IPX, suspended cells were pre-incubated with 0.1 μM [^3H]myo-inositol for 60 min, washed, and incubated with 10 mM LiCl for 15 min. […] The incubation was stopped by addition of 0.5 ml of chloroform methanol HCl mixture (2:1:0.1). […]
SMILES,Maximal inhibition of cAMP synthesis,Maximal inhibition of cAMP synthesis (in words),cAMP level (in words)
"C[N+]1(Cc2cccs2)CC=CCC1.[I-] (centres unmarked) [Compound 7A, 1-methyl-1-[(thiophen-2-yl)methyl]-1,2,3,6-tetrahydropyridin-1-ium iodide]",about 40%,the same as inhibition by carbachol,only inhibited cAMP synthesis
"C[N+](C)(C)CCOC(N)=O [carbachol, reference compound]",about 40%,,transient decrease in cAMP level
"C1=CCN(Cc2cccs2)CC1.Cl [Compound 6A, 1-[(thiophen-2-yl)methyl]-1,2,3,6-tetrahydropyridin-1-ium chloride]",about 40%,the same as inhibition by carbachol,only inhibited cAMP synthesis
